The target in the assay is Nav1.8 sodium channel (Homo sapiens (Human), UniProt Q9Y5Y9). Kind of assay: NaV1.8 blocking activity, manual patch clamp. It counts as cell-based. The following applies: CHO cell line stably expressing Nav1.8. As for the experimental part:
The NaV1.8 blocking activity was determined by using a manual patch clamp technique to detect the effect of the subject on the channel currents of stably overexpressed Nav1.8.
CHO cell line stably expressing the Nav1.8 sodium channel was used for the experiments, gene information: sodium channel, voltage-gated, type 8, alpha (SCN10A), cDNA strictly similar to GenBank accession number: NM 006514.
Cells were cultured in HAM'S/F-12 medium containing 10% foetal bovine serum and 10 μg/mL Blasticidin, 200 μg/mL Hygromycin B, and 100 μg/mL Zeocin at 37° C., 5% CO2. For expansion or maintenance cultures, cells were treated with 0.25%-Trypsin-EDTA, washed and centrifuged, and then inoculated in 6-cm cell culture dishes with 2.5×10^5lls per cell culture dish (final volume: 5 mL).
Prior to the patch clamp detection, cells were separated with 0.25%-Trypsin-EDTA and 6.5×10^3 cells were spread onto coverslips and incubated (final volume: 500 μL) in 24-well plates for 18 hours, then the test was performed.
50 mM CsCl, 10 mM NaCl, 10 mM HEPES, 60 mM CsF, 20 mM EGTA, and pH was adjusted to 7.2 with CsOH. • Instrument information is provided in Table 2 below:
Prior to Nav1.8 channel current testing, a blank control solution (DMSO) was diluted into 10 ml of extracellular fluid as the working solution. Positive controls and subjects were first diluted with different doses of DMSO depending on the final concentration before being diluted as working solution using extracellular fluid. 100 nM TTX was added to each working solution to block the TTX-S current. The working solution was sonicated for 20 min before performing the patch clamp test detection.
Patch clamp manipulation: firstly, the capillary glass tube was drawn into a recording electrode using a microelectrode puller, then the electrode filled with intracellular fluid was loaded into the microelectrode holder, and the microelectrode manipulator was manoeuvred under an inverted microscope to immerse the electrode into the extracellular fluid and record the electrode resistance (Rpip). The electrode was then slowly contacted to the cell surface and negative pressure suction was given to form a GQ2 seal. At this time, fast capacitance compensation was performed and negative pressure was continually applied to suction through the cell membrane to form a whole-cell recording pattern. Finally, slow capacitance compensation was performed and experimental parameters such as series resistance (Rs) were recorded. No leakage compensation was given.
Drug administration was initiated when the Nav1.8 current was stabilized for whole-cell recordings, and the next concentration was detected after each drug concentration had acted for approximately 5 min (or until the current was stable). Cell-lined coverslips were placed in the recording bath under an inverted microscope, and the blank control external solution as well as the working solution of the compound to be tested flowed sequentially from low to high concentrations through the recording bath by using gravitational perfusion and thus acted on the cells, and a peristaltic pump was used to exchange fluids during the recording. The current detected by each cell in the compound-free external fluid served as its own control. Each concentration was repeated independently 2-3 times. All electrophysiological experiments were performed at room temperature.
The voltage stimulation scheme for whole-cell patch-clamp recording of Nav1.8 currents was as follows: when a whole-cell seal was formed, the voltage was clamped at −120 mV. The resting state recording of sodium currents was performed by maintaining the voltage for 5s and then depolarizing it to 0 mV, and then administering a depolarizing pulse (TP1) to 0 m V for 50 ms for detecting the resting state sodium currents. For half-inactivated state recording, the voltage was first stepped at different voltages and maintained for 5s and then a depolarizing pulse was given to 0 mV to detect the Vhalf. […]

Sequence of Nav1.8 sodium channel (Q9Y5Y9 whole entry): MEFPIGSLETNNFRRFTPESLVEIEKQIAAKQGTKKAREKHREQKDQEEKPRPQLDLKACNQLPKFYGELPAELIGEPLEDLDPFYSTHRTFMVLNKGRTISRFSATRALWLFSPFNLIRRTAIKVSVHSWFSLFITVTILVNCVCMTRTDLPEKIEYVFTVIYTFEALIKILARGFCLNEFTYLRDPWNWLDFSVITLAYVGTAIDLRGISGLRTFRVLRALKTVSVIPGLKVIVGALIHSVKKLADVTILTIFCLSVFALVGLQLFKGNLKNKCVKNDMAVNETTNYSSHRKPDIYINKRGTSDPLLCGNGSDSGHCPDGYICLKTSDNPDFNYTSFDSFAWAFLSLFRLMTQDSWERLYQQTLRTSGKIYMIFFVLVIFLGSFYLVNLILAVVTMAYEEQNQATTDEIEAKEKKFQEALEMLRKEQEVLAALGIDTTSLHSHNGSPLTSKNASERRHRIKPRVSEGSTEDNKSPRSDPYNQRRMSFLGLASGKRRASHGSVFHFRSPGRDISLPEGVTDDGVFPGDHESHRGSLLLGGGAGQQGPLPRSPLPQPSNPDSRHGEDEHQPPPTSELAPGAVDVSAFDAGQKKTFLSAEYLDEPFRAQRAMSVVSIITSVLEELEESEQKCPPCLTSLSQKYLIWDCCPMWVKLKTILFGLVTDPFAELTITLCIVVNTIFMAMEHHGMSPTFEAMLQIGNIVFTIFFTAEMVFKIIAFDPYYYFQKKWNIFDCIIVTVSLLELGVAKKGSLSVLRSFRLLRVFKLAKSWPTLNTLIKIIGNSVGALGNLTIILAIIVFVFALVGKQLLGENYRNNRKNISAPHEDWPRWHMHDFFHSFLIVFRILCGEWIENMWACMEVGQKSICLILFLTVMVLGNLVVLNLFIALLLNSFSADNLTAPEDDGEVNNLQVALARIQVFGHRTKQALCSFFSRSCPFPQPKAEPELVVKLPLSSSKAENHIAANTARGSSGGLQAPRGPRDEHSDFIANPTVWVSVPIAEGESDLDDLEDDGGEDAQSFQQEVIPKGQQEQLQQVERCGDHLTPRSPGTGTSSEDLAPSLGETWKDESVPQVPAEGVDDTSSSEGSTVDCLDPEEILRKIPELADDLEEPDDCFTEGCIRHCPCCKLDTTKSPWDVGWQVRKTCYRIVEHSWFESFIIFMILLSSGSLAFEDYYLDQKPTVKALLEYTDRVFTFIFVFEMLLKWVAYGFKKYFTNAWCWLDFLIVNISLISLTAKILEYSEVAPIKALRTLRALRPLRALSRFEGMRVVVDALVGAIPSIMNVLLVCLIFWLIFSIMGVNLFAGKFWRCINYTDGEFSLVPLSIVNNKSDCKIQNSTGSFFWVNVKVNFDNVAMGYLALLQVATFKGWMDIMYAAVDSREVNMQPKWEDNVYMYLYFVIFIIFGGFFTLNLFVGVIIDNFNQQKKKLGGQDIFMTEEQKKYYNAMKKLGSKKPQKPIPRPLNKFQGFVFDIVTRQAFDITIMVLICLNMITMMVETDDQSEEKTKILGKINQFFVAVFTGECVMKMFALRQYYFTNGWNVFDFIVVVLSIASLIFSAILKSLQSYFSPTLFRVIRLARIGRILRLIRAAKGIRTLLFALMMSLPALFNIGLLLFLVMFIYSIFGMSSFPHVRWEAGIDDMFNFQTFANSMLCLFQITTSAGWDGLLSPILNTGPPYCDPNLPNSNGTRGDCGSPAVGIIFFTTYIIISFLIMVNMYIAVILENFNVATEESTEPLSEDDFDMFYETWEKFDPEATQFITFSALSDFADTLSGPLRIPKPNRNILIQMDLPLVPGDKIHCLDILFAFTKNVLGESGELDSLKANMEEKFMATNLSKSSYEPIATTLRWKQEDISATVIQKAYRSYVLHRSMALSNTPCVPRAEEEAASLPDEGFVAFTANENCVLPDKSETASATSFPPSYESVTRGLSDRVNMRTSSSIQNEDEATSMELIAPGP

For “4-((2R,3S,4S,5R)-3-(3,4-difluoro-2-(methoxy-d3)phenyl)-4,5-dimethyl-1-(2,2,2-trifluoroacetyl)-5-(trifluoromethyl) pyrrolidine-2-carboxamido)pyridinamide [Compound 17]”, the “Blocking rate (%) @3 nM” value turned out to be 28.89% and the “Blocking rate(%) @10 nM” value was 77.24%.
Regarding `COc1c([C@@H]2[C@@H](C(=O)Nc3ccnc(C(N)=O)c3)N[C@](C)(C(F)(F)F)[C@@H]2C)ccc(F)c1F` [Compound 2, 4-((2S,3R,4R,5S)-3-(3,4-difluoro-2-methoxyphenyl)-4,5-dimethyl-5-(trifluoromethyl)pyrrolidine-2-carboxamido)pyridine amide], the “Blocking rate(%) @10 nM” value is reported as 9.30%.
As to `COc1c([C@H]2[C@H](C(=O)Nc3ccnc(C(N)=O)c3)N(C)[C@@](C)(C(F)(F)F)[C@H]2C)ccc(F)c1F` [Compound 3, 4-((2R,3S,4S,5R)-3-(3,4-difluoro-2-methoxyphenyl)-1,4,5-trimethyl-5-(trifluoromethyl)pyrrolidine-2-carboxamido)pyridine amide], the “Blocking rate(%) @10 nM” value turned out to be 84.03%.
On the same count and under the same terms, the result for `COc1c([C@@H]2[C@@H](C(=O)Nc3ccnc(C(N)=O)c3)N(C)[C@](C)(C(F)(F)F)[C@@H]2C)ccc(F)c1F` [Compound 4, 4-((2S,3R,4R,5S)-3-(3,4-difluoro-2-methoxyphenyl)-1,4,5-trimethyl-5-(trifluoromethyl)pyrrolidine-2-carboxamido)pyridine amide] reads 6.05%.
For the compound `COc1c([C@H]2[C@H](C(=O)Nc3ccc([C@H](O)CO)nc3)N[C@@](C)(C(F)(F)F)[C@H]2C)ccc(F)c1F` [Compound 5, (2R,3S,4S,5R)-3-(3,4-difluoro-2-methoxyphenyl)-aza-(6-((S)-1,2-dihydroxyethyl)pyridin-3-yl)-4,5-dimethyl-5-(trifluoromethyl) pyrrolidine-2-carboxamide], the “Blocking rate (%) @3 nM” value amounted to 72.73% and the “Blocking rate(%) @10 nM” value stood at 79.03%.
Regarding `COc1c([C@H]2[C@H](C(=O)Nc3ccc([C@@H](O)CO)nc3)N[C@@](C)(C(F)(F)F)[C@H]2C)ccc(F)c1F` [Compound 6, (2R,3S,4S,5R)-3-(3,4-difluoro-2-methoxyphenyl)-aza-(6-((R)-1,2-dihydroxyethyl)pyridin-3-yl)-4,5-dimethyl-5-(trifluoromethyl) pyrrolidine-2-carboxamide], the “Blocking rate (%) @3 nM” value is listed as 20.06% and the “Blocking rate(%) @10 nM” value stood at 45.92%.
As to `COc1c([C@H]2[C@H](C(=O)Nc3ccnc(S(N)(=O)=O)c3)N[C@@](C)(C(F)(F)F)[C@H]2C)ccc(F)c1F` [Compound 9, (2R,3S,4S,5R)-3-(3,4-difluoro-2-methoxyphenyl)-4,5-dimethyl-aza-(2-aminosulfonylpyridin-4-yl)-5-(trifluoromethyl) pyrrolidine-2-carboxamide], the “Blocking rate (%) @3 nM” value is 58.06% and the “Blocking rate(%) @10 nM” value came to 84.91%.
With `COc1c([C@H]2[C@H](C(=O)Nc3ccnc(S(C)(=O)=O)c3)N[C@@](C)(C(F)(F)F)[C@H]2C)ccc(F)c1F` [Compound 12, (2R,3S,4S,5R)-3-(3,4-difluoro-2-methoxyphenyl)-4,5-dimethyl-N-(2-(methylsulfonyl)pyridin-4-yl)-5-(trifluoromethyl) pyrrolidine-2-carboxamide], the “Blocking rate (%) @3 nM” value was 77.43% and the “Blocking rate(%) @10 nM” value came to 88.65%.
As for `C[C@H]1[C@@H](c2ccc(F)c(F)c2OC(F)F)[C@H](C(=O)Nc2ccnc(C(N)=O)c2)N[C@@]1(C)C(F)(F)F` [Compound 13, 4-((2R,3S,4S,5R)-3-(2-(difluoromethoxy)-3,4-difluorophenyl)-4,5-dimethyl-5-(trifluoromethyl)pyrrolidine-2-carboxamido)pyridinamide], the “Blocking rate (%) @3 nM” value was found to be 75.71% and the “Blocking rate(%) @10 nM” value was 92.01%.

These data come from patent US20250296922A1, “POLYSUBSTITUTED PYRROLIDINE DERIVATIVE, PREPARATION METHOD THEREFOR AND USE THEREOF” (SHANGHAI WENNAI THERAPEUTICS CO LTD, priority 2023, published 2025).
